Measured values from paper PMC8815882, “Screening the pandemic response box identified benzimidazole carbamates, Olorofim and ravuconazole as promising drug candidates for the treatment of eumycetoma” (PLoS Neglected Tropical Diseases, 2022).
Like-named read-outs stand apart in the source and are kept apart here.

Test system: M. mycetomatis genome strain MM55
Experiment: CLSI M38-A2 based in vitro susceptibility screening (XTT or resazurin), growth at fixed concentration
Type: cell-based, Madurella mycetomatis
Conditions: Madurella mycetomatis; for Percent fungal survival at 100 µM: read-out: Percentage survival at 100um, 100 uM A (second replicate column)
[1] = mean of three replicates, read-out: Percentage survival at 25um, 25 uM mean
[2] = replicate A, read-out: Percentage survival at 25um, 25 um A
[3] = replicate B, read-out: Percentage survival at 25um, 25 uM B
[4] = replicate C, read-out: Percentage survival at 25um, 25 uM C
[5] = first replicate column, read-out: Percentage survival at 100um, 100 uM A
[6] = mean of three replicates, read-out: Percentage survival at 100um, 100 uM mean
[7] = second replicate column, read-out: Percentage survival at 100um, 100 uM A
[8] = third replicate column, read-out: Percentage survival at 100um, 100 uM A
[9] = mean of replicates, MM55, read-out: Percentage survival at 25um, 25 uM mean
[10] = replicate A, MM55, read-out: Percentage survival at 25um, 25 um A
[11] = replicate B, MM55, read-out: Percentage survival at 25um, 25 uM B
[12] = replicate C, MM55, read-out: Percentage survival at 25um, 25 uM C
[13] = mean of replicates, MM55, read-out: Percentage survival at 100um, 100 uM mean
[14] = replicate 1, MM55, read-out: Percentage survival at 100um, 100 uM A
[15] = replicate 2, MM55, read-out: Percentage survival at 100um, 100 uM A
[16] = replicate 3, MM55, read-out: Percentage survival at 100um, 100 uM A
[17] = replicate 1, read-out: Percentage survival at 100um, 100 uM A (first replicate column)
[18] = replicate 3, read-out: Percentage survival at 100um, 100 uM A (third replicate column)
[19] = mean, read-out: Percentage survival at 25um, 25 uM mean
[20] = mean, read-out: Percentage survival at 100um, 100 uM mean
[21] = replicate (first column), read-out: Percentage survival at 100um, 100 uM A
[22] = replicate (second column), read-out: Percentage survival at 100um, 100 uM A
[23] = replicate (third column), read-out: Percentage survival at 100um, 100 uM A

| SMILES | activity at 25 µM [1] [%] | activity at 25 µM [2] [%] | activity at 25 µM [3] [%] | activity at 25 µM [4] [%] | activity at 100 µM [5] [%] | activity at 100 µM [6] [%] | activity at 100 µM [7] [%] | activity at 100 µM [8] [%] | further results |
| --- | --- | --- | --- | --- | --- | --- | --- | --- | --- |
| CCc1c(OCC2CCC2)c2cc(F)ccc2[nH]c1=O [MMV1634395] | 67.1 | 59.4 | 71.5 | 70.4 | 62.9 | 55.6 | 45.1 | 58.8 |  |
| O=C(c1nc2c(C(F)(F)F)cc(C3CC3)cn2c1Cl)N1CCN([C@H]2CC[C@H](O)CC2)C(=O)C1 [MMV1634396] | 94.9 | 99.5 | 104 | 81.4 | 92.3 | 86.8 | 90.6 | 77.4 |  |
| COc1ccc(CNC(=O)C2CCN([C@H](C)c3cccc4ccccc34)CC2)cc1 [MMV1634397] |  |  |  |  |  |  |  |  | activity at 25 µM [9]: 45.7%; activity at 25 µM [10]: 62.4%; activity at 25 µM [11]: 66.9%; activity at 25 µM [12]: 7.76%; activity at 100 µM [13]: 4.13%; activity at 100 µM [14]: 3.82%; activity at 100 µM [15]: -0.868%; activity at 100 µM [16]: 9.43% |
| CCOc1ccc(/C=N/NC(=O)C2CC2c2ccc(C(C)(C)C)cc2)cc1OCC (centres unmarked) [MMV1634398] |  | 88.3 | 97.5 | 72 |  |  |  |  | activity at 25 µM (mean of replicates, read-out: Percentage survival at 25um, 25 uM mean): 85.9%; activity at 100 µM (mean of replicates, read-out: Percentage survival at 100um, 100 uM mean): 81.1%; activity at 100 µM [17]: 88.5%; Percent fungal survival at 100 µM (replicate 2): 87.7%; activity at 100 µM [18]: 67.1% |
| Cc1ccc(C)c(OCCCCCCN2C[C@H](O)[C@@H](O)[C@H](O)[C@H]2CO)c1 [MMV1634401] | 82.7 | 64.4 | 87.6 | 96.1 | 83.4 | 82.2 | 82.8 | 80.5 |  |
| CS(=O)(=O)c1ccc(Oc2ccc(Cl)cc2)cc1 [MMV1634404] | 85.3 | 90 | 98 | 68 |  | 50.7 |  |  | activity at 100 µM [17]: 44.2%; Percent fungal survival at 100 µM (replicate 2): 49%; activity at 100 µM [18]: 59% |
| CCc1cc(CCCOc2c(C)cc(-c3noc(C(F)(F)F)n3)cc2C)on1 [MMV1634556] | 87 | 70.7 | 105 | 85.5 | 76.5 | 73 | 74.6 | 68 |  |
| COc1cc(C2C3=C(CC(C)(C)CC3=O)Nc3ccccc3N2C(C)=O)ccc1OCc1ccccc1 (centres unmarked) [MMV1634557] |  | 90.5 | 79.1 | 76.6 |  |  |  |  | activity at 25 µM [19]: 82.1%; activity at 100 µM [20]: 85.5%; activity at 100 µM [21]: 92.5%; activity at 100 µM [22]: 79.5%; activity at 100 µM [23]: 84.5% |
| Nc1nc(=O)c(Br)c(-c2cccc(Cl)c2)[nH]1 [MMV1645152] | 84.5 | 79.7 | 91.3 | 82.6 | 87.5 | 75.8 | 77.5 | 62.2 |  |
| CCc1nc2ccccn2c1C(=O)NCc1ccccc1 [MMV1663457] |  |  |  |  |  |  |  |  | activity at 25 µM (mean of three, M. mycetomatis MM55, read-out: Percentage survival at 25um, 25 uM mean): 64.2%; activity at 25 µM (replicate A, M. mycetomatis MM55, read-out: Percentage survival at 25um, 25 um A): 58%; activity at 25 µM (replicate B, M. mycetomatis MM55, read-out: Percentage survival at 25um, 25 uM B): 69.7%; activity at 25 µM (replicate C, M. mycetomatis MM55, read-out: Percentage survival at 25um, 25 uM C): 64.8%; activity at 100 µM (mean of three, M. mycetomatis MM55, read-out: Percentage survival at 100um, 100 uM mean): 64.3%; activity at 100 µM (replicate 1, M. mycetomatis MM55, read-out: Percentage survival at 100um, 100 uM A (first replicate column)): 52.2%; Percent fungal survival at 100 µM (replicate 2, M. mycetomatis MM55): 54%; activity at 100 µM (replicate 3, M. mycetomatis MM55, read-out: Percentage survival at 100um, 100 uM A (third replicate column)): 86.6% |
| O=C(NCc1ccc(F)cc1)c1c(O)c2ncccc2[nH]c1=O [MMV1782097] |  |  |  |  |  |  |  |  | activity at 25 µM [9]: 95.5%; activity at 25 µM [10]: 97.7%; activity at 25 µM [11]: 100%; activity at 25 µM [12]: 88.2%; activity at 100 µM [13]: 82.8%; activity at 100 µM [14]: 86.6%; activity at 100 µM [15]: 79.1%; activity at 100 µM [16]: 82.7% |
| CCCCN1C[C@H](O)[C@@H](O)[C@H](O)[C@H]1CO [MMV1782098] |  |  |  |  |  |  |  |  | activity at 25 µM [9]: 95.7%; activity at 25 µM [10]: 96.4%; activity at 25 µM [11]: 111%; activity at 25 µM [12]: 79.8%; activity at 100 µM [13]: 68%; activity at 100 µM [14]: 94.4%; activity at 100 µM [15]: 27.4%; activity at 100 µM [16]: 82.2% |
| COc1cc(C(C)(C)CCCC(C)C)cc(OC)c1OC [MMV1782102] | 78.4 | 88.5 | 83 | 63.5 | 90.3 | 83.9 | 86 | 75.5 |  |
| COCCn1cnc2c(=O)[nH]c(Nc3ccccc3)nc21 [MMV1782103] |  |  |  |  |  |  |  |  | activity at 25 µM [9]: 86.8%; activity at 25 µM [10]: 90%; activity at 25 µM [11]: 97.7%; activity at 25 µM [12]: 72.6%; activity at 100 µM [13]: 75.1%; activity at 100 µM [14]: 87.4%; activity at 100 µM [15]: 60.4%; activity at 100 µM [16]: 77.5% |
| NC(=O)c1nccn([C@@H]2O[C@H](CO)[C@@H](O)[C@H]2O)c1=O [MMV1782104] | 99.8 | 102 | 107 | 90.3 | 97.1 | 86.1 | 97.7 | 63.4 |  |
| O=c1oc2ccc(Br)cc2cc1CSc1ncc[nH]1 [MMV1782105] | 79.9 | 77.1 | 83.9 | 78.6 | 62.8 | 63.6 | 59.4 | 68.5 |  |
| CCc1cc(CCC(=O)Nc2ccccc2O)c(=O)[nH]c1C [MMV1782106] | 91.9 | 84.9 | 85.4 | 105 | 83.7 | 83.9 | 82.9 | 85.1 |  |
| O=c1[nH]c(=O)n(Cc2cccc(Oc3ccccc3)c2)cc1Nc1ccccc1 [MMV1782107] | 91.7 | 75.5 | 83.9 | 116 | 90.6 | 71.8 | 77.9 | 47.1 |  |
| CCCCc1ccc(S(=O)(=O)Nc2cc(C)on2)cc1 [MMV1782108] |  | 90.5 | 80.2 | 87.6 |  |  |  |  | activity at 25 µM [19]: 86.1%; activity at 100 µM [20]: 82.9%; activity at 100 µM [21]: 79.8%; activity at 100 µM [22]: 82.7%; activity at 100 µM [23]: 86.3% |
| O=C(N[C@H](Cc1cccc2ccccc12)C(=O)NCCc1c[nH]cn1)C1Cc2ccccc2C1 [MMV1782109] |  | 88.1 | 81.3 | 72.6 |  |  |  |  | activity at 25 µM [19]: 80.7%; activity at 100 µM [20]: 67%; activity at 100 µM [21]: 69.9%; activity at 100 µM [22]: 67.6%; activity at 100 µM [23]: 63.4% |
| O=C(CCc1ccc2c(c1)OCO2)NCc1ccc(-c2ccccc2F)cc1 [MMV1782110] |  | 102 | 62.1 | 71.9 |  |  |  |  | activity at 25 µM [19]: 78.7%; activity at 100 µM [20]: 77.4%; activity at 100 µM [21]: 79%; activity at 100 µM [22]: 73.6%; activity at 100 µM [23]: 79.5% |
| CC(C)C(=O)N[C@H]1[C@H]([C@H](O)[C@H](O)CO)OC(C(=O)O)=C[C@@H]1N=[N+]=[N-] [MMV1782111] |  |  |  |  |  |  |  |  | activity at 25 µM [9]: 95.4%; activity at 25 µM [10]: 71.1%; activity at 25 µM [11]: 133%; activity at 25 µM [12]: 82.3%; activity at 100 µM [13]: 57.6%; activity at 100 µM [14]: 71%; activity at 100 µM [15]: 27.4%; activity at 100 µM [16]: 74.4% |
